Assay results as given in US20060258598A1, “Alpha-keto carbonyl calpain inhibitors” (priority 2003, published 2006).

Experiments:
human μ-calpain = molecular target: T1, human μ-calpain (Homo sapiens, UniProt P07384); assay: Enzymatic calpain inhibition assay; type: biochemical; details: substrate Suc-Leu-Tyr-AMC, read-out: Calp I IC50
T1 construct: purchased Calbiochem
T1 sequence (P07384 1-714): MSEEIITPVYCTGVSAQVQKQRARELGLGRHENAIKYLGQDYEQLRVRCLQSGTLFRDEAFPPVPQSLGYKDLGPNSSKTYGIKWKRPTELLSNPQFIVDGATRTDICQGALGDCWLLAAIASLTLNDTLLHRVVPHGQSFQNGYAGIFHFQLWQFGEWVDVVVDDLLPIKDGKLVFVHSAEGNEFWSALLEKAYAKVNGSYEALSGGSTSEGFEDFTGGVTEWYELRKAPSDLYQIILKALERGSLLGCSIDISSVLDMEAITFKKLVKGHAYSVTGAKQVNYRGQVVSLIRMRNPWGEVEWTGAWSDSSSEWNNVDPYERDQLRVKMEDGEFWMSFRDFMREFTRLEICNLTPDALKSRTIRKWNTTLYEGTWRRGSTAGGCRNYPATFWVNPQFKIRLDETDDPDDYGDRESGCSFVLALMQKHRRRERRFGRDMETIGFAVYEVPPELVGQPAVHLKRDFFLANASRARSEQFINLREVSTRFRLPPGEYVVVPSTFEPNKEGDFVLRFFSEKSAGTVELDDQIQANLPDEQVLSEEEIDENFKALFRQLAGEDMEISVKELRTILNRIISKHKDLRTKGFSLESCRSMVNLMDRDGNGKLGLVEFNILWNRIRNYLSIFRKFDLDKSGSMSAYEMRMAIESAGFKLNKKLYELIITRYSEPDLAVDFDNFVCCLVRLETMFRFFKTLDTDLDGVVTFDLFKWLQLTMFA
T1 sequence (P04632 1-268 partner): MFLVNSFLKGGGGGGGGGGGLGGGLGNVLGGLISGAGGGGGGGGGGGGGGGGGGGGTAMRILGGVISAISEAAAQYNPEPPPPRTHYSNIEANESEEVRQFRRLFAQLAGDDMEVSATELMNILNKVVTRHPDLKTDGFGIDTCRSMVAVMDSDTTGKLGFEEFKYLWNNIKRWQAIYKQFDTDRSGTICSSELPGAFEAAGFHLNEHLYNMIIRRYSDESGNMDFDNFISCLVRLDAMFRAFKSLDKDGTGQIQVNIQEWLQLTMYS
Procedure: The Ki value was also determined in some cases. These criteria were used to measure the inhibitory effect of the compounds (I) on calpain I, calpain II and cathepsin B.
Enzymatic Calpain Inhibition Assay
The inhibitory properties of calpain inhibitors are tested in 100 μl of a buffer containing 100 mM imidazole pH 7.5, 5 mM L-Cystein-HCl, 5 mM CaCl2, 250 μM of the calpain fluorogenic substrate Suc-Leu-Tyr-AMC (Sigma) (Sasaki et al., J. Biol. Chem., 1984, 259, 12489-12949) dissolved in 2.5 μl DMSO and 0.5 μg of human μ-calpain (Calbiochem). The inhibitors dissolved in 1 μl DMSO are added to the reaction buffer. The fluorescence of the cleavage product 7-amino-4-methylcoumarin (AMC) is followed in a SPECTRAmax GEMINI XS (Molecular Device) fluorimeter at λex=360 nm and λem=440 nm at 30° C. during 30 min at intervals of 30 sec in 96-well plates (Greiner). The initial reaction velocity at different inhibitor concentrations is plotted against the inhibitor concentration and the IC50 values determined graphically.

[1] = tested on: cellular calpains in C2C12 myoblasts; assay: Calpain inhibition assay in C2C12 myoblasts; type: cell-based; details: 2 h incubation, calcium ionophore Br-A-23187, read-out: Calp I IC50 Myoblast
Procedure: Calpain Inhibition Assay in C2C12 Myoblasts
This assay is aimed at monitoring the ability of the substance to inhibit cellular calpains. C2C12 myoblasts are grown in 96-well plates in growth medium (DMEM, 20% foetal calf serum) until they reach confluency. The growth medium is then replaced by fusion medium (DMEM, 5% horse serum). 24 hours later the fusion medium is replaced by fusion medium containing the test substances dissolved in 1 μl DMSO. After 2 hours of incubation at 37° C. the cells are loaded with the calpain fluorogenic substrate Suc-Leu-Tyr-AMC at 400 μM in 50 μl of a reaction buffer containing 135 mM NaCl; 5 mM KCl; 4 mM CaCl2; 1 mM MgCl2; 10 mM Glucose; 10 mM HEPES pH 7.25 for 20 min at room temperature. The calcium influx, necessary to activate the cellular calpains, is evoked by the addition of 50 μl reaction buffer containing 20 μM of the calcium ionophore Br-A-23187 (Molecular Probes). The fluorescence of the cleavage product AMC is measured as described above during 60 min at 37° C. at intervals of 1 min. The IC50 values are determined as described above. Comparison of the IC50 determined in the enzymatic calpain inhibition assay to the IC50 determined in the C2C12 myoblasts calpain inhibiton assay, allows to evaluate the cellular uptake or the membrane permeability of the substance.

[2] = tested on: Primary fibroblasts from donors with Friedreich Ataxia (FRDA); assay: BSO assay (cell viability under BSO-induced oxidative stress); type: cell-based, human; details: 24 h preincubation, 1 mM BSO; for EC50: Homo sapiens, Fibroblast
Procedure: Primary fibroblasts were derived from donors with molecular diagnosis for Friedreich Ataxia (FRDA) and control donors with no mitochondrial disease. Cell lines were obtained from Coriell Cell Repositories (Camden, N.J.; catalog numbers GM04078, GM08402 and GM08399 respectively). All cell types were diagnosed on the molecular level for intronic […] triplet repeat length of at least 400-450 repeats using a PCR-based method. Experiments were carried out as described in the literature (M. L. Jauslin et al., Human Mol. Genet., 2002, 11, 3055-3063): Cells were seeded in microtiter plates at a density of 4'000 cells per 100 μl in growth medium consisting of 25% (v/v) M199 EBS and 64% (v/v) MEM EBS without phenol red (Bioconcept, Allschwil, Switzerland) supplemented with 10% (v/v) fetal calf serum (PAA Laboratories, Linz, Austria), 100 U/ml penicillin, 100 μg/ml streptomycin (PAA Laboratories, Linz, Austria), 10 μg/ml insulin (Sigma, Buchs, Switzerland), 10 ng/ml EGF (Sigma, Buchs, Switzerland), 10 ng/ml bFGF (PreproTech, Rocky Hill, N.J.) and 2 mM glutamine (Sigma, Buchs, Switzerland). The cells were incubated in the presence of various test compounds for 24 h before addition of L-buthionine-(S,R)-sulfoximine (BSO) to a final concentration of 1 mM. Cell viability was measured after the first signs of toxicity appeared in the BSO-treated controls (typically after 16 to 48 h). The cells were stained for 60 min at room temperature in PBS with 1.2 μM calcein AM and 4 μM ethidium homodimer (Live/Dead assay, Molecular Probes, Eugene, Oreg.). Fluorescence intensity was measured with a Gemini Spectramax XS spectrofluorimeter (Molecular Devices, Sunnyvale, Calif.) using excitation and emission wavelengths of 485 nm and 525 nm respectively.

Row | Structure (SMILES) | IC50 (human μ-calpain) [nM] | IC50 [1] [nM] | EC50 [2] [nM] | BSO EC50 [2]
1 | CCNC(=O)C(=O)[C@H](Cc1ccc(Cl)cc1)NC(=O)[C@@H](NC(=O)CCCCC1CCS[S+]1[O-])C(C)C (stereo partly shown) [Example 2] | 80 | 6000 | 2000 | 
2 | CCNC(=O)C(=O)[C@H](Cc1ccc(Cl)cc1)NC(=O)[C@@H](NC(=O)CCCC1CCCS1)C(C)C (stereo partly shown) [Example 5] | 120 | 2000 | 2000 | 
3 | CCNC(=O)C(=O)[C@H](Cc1ccc(Cl)cc1)NC(=O)[C@@H](NC(=O)CCC1CCCS1)C(C)C (stereo partly shown) [Example 6] | 110 | 3200 |  | 
4 | Cc1ccc(S(=O)(=O)CNC(=O)C(=O)[C@H](Cc2ccc(Cl)cc2)NC(=O)[C@@H](NC(=O)CCCCC2CCSS2)C(C)C)cc1 (stereo partly shown) [Example 13] | 200 | 500 | 1000 | 
5 | Cc1ccc(S(=O)(=O)CNC(=O)C(=O)[C@H](Cc2ccc(Cl)cc2)NC(=O)[C@@H](NC(=O)CCCCC2CCS[S+]2[O-])C(C)C)cc1 (stereo partly shown) [Example 14] | 200 | 1200 |  | 
6 | CCNC(=O)C(=O)[C@H](Cc1ccc(Cl)cc1)NC(=O)[C@H](CC(C)C)NC(=O)CCCCC1CCSS1 (stereo partly shown) [Example 15] | 22 | 2500 | 4000 | 
7 | CCNC(=O)C(=O)[C@H](Cc1ccc(Cl)cc1)NC(=O)[C@H](CC(C)C)NC(=O)CCCCC1CCS[S+]1[O-] (stereo partly shown) [Example 16] | 50 | 2000 | 4000 | 
8 | Cc1ccc(S(=O)(=O)CNC(=O)C(=O)[C@H](Cc2ccc(Cl)cc2)NC(=O)[C@H](CC(C)C)NC(=O)CCCCC2CCSS2)cc1 (stereo partly shown) [Example 25] | 120 | 1500 | 2000 | 
9 | Cc1ccc(S(=O)(=O)CNC(=O)C(=O)[C@H](Cc2ccc(Cl)cc2)NC(=O)[C@H](CC(C)C)NC(=O)CCCCC2CCS[S+]2[O-])cc1 (stereo partly shown) [Example 26] | 120 | 2000 | 4000 | 
10 | CCNC(=O)C(=O)[C@H](Cc1ccc(Cl)cc1)NC(=O)[C@H](CC(C)(C)C)NC(=O)CCCCC1CCSS1 (stereo partly shown) [Example 27] | 100 | 3500 |  | inactive
11 | CCNC(=O)C(=O)[C@H](Cc1ccc(Cl)cc1)NC(=O)[C@H](CC(C)(C)C)NC(=O)CCCCC1CCS[S+]1[O-] (stereo partly shown) [Example 28] | 180 | 4000 |  | inactive
12 | CCNC(=O)C(=O)[C@H](Cc1ccc(Cl)c(Cl)c1)NC(=O)[C@@H](NC(=O)CCCCC1CCSS1)C(C)C (stereo partly shown) [Example 29] | 85 | 10000 |  | 
13 | CCNC(=O)C(=O)[C@H](Cc1ccc(Cl)c(Cl)c1)NC(=O)[C@H](CC(C)C)NC(=O)CCCCC1CCSS1 (stereo partly shown) [Example 31] | 30 | 2500 | 15000 | 
14 | CCNC(=O)C(=O)[C@H](Cc1ccc(Cl)cc1Cl)NC(=O)[C@@H](NC(=O)CCCCC1CCSS1)C(C)C (stereo partly shown) [Example 33] | 100 | 40000 |  | inactive
15 | CCNC(=O)C(=O)[C@H](Cc1ccc(Cl)cc1Cl)NC(=O)[C@@H](NC(=O)CCCCC1CCS[S+]1[O-])C(C)C (stereo partly shown) [Example 34] | 500 | 20000 |  | 
16 | CCNC(=O)C(=O)[C@H](Cc1ccc(Cl)cc1Cl)NC(=O)[C@H](CC(C)C)NC(=O)CCCCC1CCSS1 (stereo partly shown) [Example 35] | 50 | 3000 |  | inactive
17 | CCNC(=O)C(=O)[C@H](Cc1ccc(F)c(F)c1)NC(=O)[C@@H](NC(=O)CCCCC1CCSS1)C(C)C (stereo partly shown) [Example 41] | 100 | 700 |  | 
18 | CCNC(=O)C(=O)[C@H](Cc1ccc(I)cc1)NC(=O)[C@H](CC(C)C)NC(=O)CCCCC1CCS[S+]1[O-] (stereo partly shown) [Example 79] | 15 | 500 |  | 
19 | COc1ccc(C[C@H](NC(=O)[C@@H](NC(=O)CCCCC2CCS[S+]2[O-])C(C)C)C(=O)C(=O)O)cc1 (stereo partly shown) [Example 89] | 60 | 4000 |  | 
20 | CCNC(=O)C(=O)[C@H](Cc1ccc(C(C)(C)C)cc1)NC(=O)[C@@H](NC(=O)CCCCC1CCSS1)C(C)C (stereo partly shown) [Example 118] | 400 | 1800 |  | 
21 | CCNC(=O)C(=O)[C@H](Cc1ccc(C(C)(C)C)cc1)NC(=O)[C@H](CC(C)C)NC(=O)CCCCC1CCSS1 (stereo partly shown) [Example 120] | 95 | 850 |  | 
22 | CCNC(=O)C(=O)[C@H](Cc1ccc(C(F)(F)F)cc1)NC(=O)[C@H](CC(C)C)NC(=O)CCCCC1CCS[S+]1[O-] (stereo partly shown) [Example 125] | 40 | 800 |  | 
23 | CCNC(=O)C(=O)[C@H](CC1CCCCC1)NC(=O)[C@@H](NC(=O)CCCCC1CCSS1)C(C)C (stereo partly shown) [Example 149] | 250 | 3000 |  | 
24 | CCNC(=O)C(=O)[C@@H](NC(=O)[C@@H](NC(=O)CCCCC1CCS[S+]1[O-])C(C)C)c1ccccc1 (stereo partly shown) [Example 154] | 750 |  |  | 
25 | CCNC(=O)C(=O)[C@H](CC(C)C)NC(=O)[C@@H](NC(=O)CCCCC1CCSS1)C(C)C (stereo partly shown) [Example 157] | 500 | 250 |  | 
26 | CCNC(=O)C(=O)[C@H](Cc1ccc(Cl)cc1)NC(=O)[C@@H](NC(=O)CNC(=O)CCCCC1CCSS1)C(C)C (stereo partly shown) [Example 169] | 25 | 1000 |  | 
27 | CCNC(=O)C(=O)[C@H](Cc1ccc(Cl)cc1)NC(=O)[C@@H](NC(=O)CNC(=O)CCCCC1CCS[S+]1[O-])C(C)C (stereo partly shown) [Example 170] | 150 | 4000 |  | 
28 | CCNC(=O)C(=O)[C@H](Cc1ccc(Cl)cc1)NC(=O)[C@@H](NC(=O)CNC(=O)CCCCC1SC[C@@H]2NC(=O)N[C@H]12)C(C)C (stereo partly shown) [Example 212] | 150 | 3500 |  | 
